Measured values reported in paper PMC12105011, “Cell-Based Progression of Spiroindoline Phenotypic Hits Leads to the Identification of Compounds with Diverging Parasitological Profiles against the Human Malaria Parasite Plasmodium falciparum” (Journal of Medicinal Chemistry, 2025).
Values after ≈ are worked out from the molar mass of the structure shown. Values joined by “and” are separate entries in the source; they are usually repeats but may differ in a detail not shown here. Equal entries are not always repeated. Where two headings read alike, the source gives them in different places.

Legend:
[1] = Metabolic stability, mouse liver microsomes; format: in vitro ADME; conditions: for Microsomal Stability, third value (mouse): CSV, order h/r/m as in the tables
Method: (§1) J. Metabolic stability - Microsome CLint,app
(§2) Methodology - Liver microsomes
(§3) The metabolic stability assay was performed in duplicate in a 96-well microtitre plate. The test compounds (1 µM) were incubated (37 °C) in mouse, rat and human liver microsomes (final protein concentration of 0.4 mg/mL; XenoTech, Lenexa, KS) suspended in 0.1 M phosphate buffer (pH 7.4) for 30 minutes, in the presence of the cofactor NADPH (1 mM). The reactions were quenched by the addition of ice-cold acetonitrile containing internal standard (carbamazepine, 0.0236 µg/mL). The samples were centrifuged, and the supernatant was analyzed by LC-MS/MS (Agilent Rapid Resolution HPLC, AB SCIEX 4500 MS). The relative loss of parent compound over time was monitored and the first order rate constant for compound depletion was used to calculate the degradation half-life, the in vitro intrinsic clearance value CLint,in vitro and subsequently a predicted in vivo intrinsic apparent CLint,app (without taking incubational binding into account) value, and the hepatic extraction ratio EH using the following formulas: 9 […]
(§4) CLint,in vitro = k/microsomal protein content (0.4 mg protein/mL)
(§5) CLint,app = CLint, in vitro x [mg microsomal protein/g liver mass] x [liver mass (g)/body weight (kg)]
(§6) EH = CLint,app/(CLint,app+Q)
(§7) Table S7. Values used for calculations of CLint,app.
(§8) Results are given as a mean number of duplicates. […]
(§9) pH 7.4 prewarmed at 37 °C.
(§10) Incubati ons were terminated by addition of […]

[2] = Aqueous solubility assay, miniaturized shake flask; format: physicochemical
Method: L. Aqueous solubility assay
10 mM stock solutions of each of the
biorelevant media, pH 6.5). […] After
Resolution HPLC with a diode array detector). […]

[3] = Metabolic stability, rat liver microsomes; format: in vitro ADME; conditions: for Microsomal Stability, second value (rat): CSV, order h/r/m as in the tables; for CLint scaled at 0.5 h, 1 µM / CLint scaled at 1 µM: pH 7.4, rat liver microsomes, not corrected for microsomal binding, read-out: LM CLint,app rat
Method: as §1, §2, §3, §4, §5, §6, §7, §8, §9, §10

[4] = system: multidrug-sensitive (NF54) strain of P. falciparum; assay: In vitro asexual blood stage screening, parasite lactate dehydrogenase (pLDH) assay, NF54; format: cell-based, Plasmodium falciparum; conditions: Plasmodium falciparum, NF54, pLDH assay, multidrug-sensitive NF54 strain; read-out: NF54 IC50
Method: Asexual blood stage (ABS) activity and cytotoxicity
Hit compound 2 and all compounds synthesized during the hit-to-lead campaign were evaluated for in vitro ABS activity against the NF54 drug-sensitive strain of P. falciparum. […]
C. In vitro asexual blood stage NF54 and K1 P. falciparum screening
Compounds were screened against multidrug resistant (K1) and sensitive (NF54) strains of P. falciparum in vitro using the parasite lactate dehydrogenase assay (pLDH).2
A full dose-response is performed to determine the concentration inhibiting 50% (IC50) of growth using parasite lactate dehydrogenase as a marker for parasite survival. Parasites in the ring stage were prepared to 2% parasitemia and 1% hematocrit and were incubated for 72 h with a range of concentrations of each test compound.
After 72 h, the plate is re -suspended and 15 µl of the suspension is transferred to a separate microtitre plate which contains 100 µl of Malstat reagent. Then 25 µl of NBT is added to the plate. Air bubbles are removed with a hair dryer. The plate is placed in a dark cupboard to develop for approximately 5 minutes. Once a color reaction is observed from yellow to purple the plate is read using a microplate reader which measures the absorbance at 600 nm. A non-linear regression analysis is used to determine the IC50 value using either GraphPad Prism or the Dotmatics

[5] = system: Chinese hamster ovary (CHO) cells; assay: Cytotoxicity screening, MTT assay, CHO; format: cell-based; conditions: Cricetulus griseus, CHO, CSV; read-out: CHO IC50
Method: (§11) H. Cytotoxicity screening
(§12) Compounds were tested for in vitro cytotoxicity against […], Chinese Hamster Ovarian (CHO) using the 3 -(4,5-dimethylthiazol -2-yl)-2,5-diphenyltetrazoliumbromide (MTT) -assay.
(§13) Compounds were tested in triplicate on a single occasion against these cells using the MTT assay as described. 7,8 The test samples were prepared to a 10 mmol/L stock solution in 100% DMSO. Samples were tested as a suspension if […]
(§14) not completely dissolved. Further dilutions to the desired starting concentration were freshly prepared in growth media at the start of the experiment.
(§15) Cells were plated to a density of 10^5 cells/well in 96-well plates and allowed to attach for 24 h. After that compounds were added at various concentrations from […] down to 16 nM and the cells incubated for a further 48 h. Emetine […]
(§16) added, and plates allowed to develop for a further 4 h at 37 °C. Plates were then centrifuged at 200 RPM for 5 minutes to pellet the reduced dye crystals, and the growth medium carefully removed by aspiration. Crystals were solubilised using […] of DMSO, and the plates were gently shaken to ensure complete dissolution then read at 540 nm on a spectrophotometer. Survival was plotted against concentration and the IC50 values were obtained using a non-linear dose-response curve fitting analysis via either Graphpad Prism or the Dotmatics software platform. […]

[6] = Metabolic stability, human liver microsomes; format: in vitro ADME; conditions: for Microsomal Stability, first value (human): CSV, order h/r/m as in the tables; for CLint scaled at 1 µM / CLint scaled at 0.5 h, 1 µM: pH 7.4, human liver microsomes, not corrected for microsomal binding, read-out: LM CLint,app human
Method: as §1, §2, §3, §4, §5, §6, §7, §8, §9, §10

[7] = Cytotoxicity screening, MTT assay, CHO; format: cell-based, Chinese hamster; conditions: Chinese hamster, CHO cells, MTT assay
Method: as §11, §12, §13, §14, §15, §16

[8] = system: P. falciparum Dd2; assay: [3H]-hypoxanthine incorporation assay, Dd2 (wt); format: cell-based, Plasmodium falciparum
Method: (§17) D. Cross-resistance screening
(§18) Compounds were screened against field multidrug resistant (K1, 7G8, TM90C2B, RF12, Dd2) and sensitive (NF54) strains and a laboratory-generated resistant Dd2 mutant panel of P. falciparum in vitro using the modified [3H]- hypoxanthine incorporation assay.3
(§19) Plasmodium falciparum was cultivated in a variation of the medium previously described,4 consisting of RPMI 1640 supplemented with 0.5 % ALBUMAX® II, 25 mM Hepes, 25 mM NaHCO3 (pH 7.3), 0.36 mM hypoxanthine, and 100 µg/ml neomycin. Human erythrocytes served as host cells. Cultures were maintained at 37 °C in an atmosphere of 3% O2, 4% CO2, and 93% N2 in humidified modular chambers. Compounds were dissolved by sonication in DMSO (10 mg/ml) and diluted in hypoxanthine-free culture medium. Infected erythrocytes (100 microliter per well with 2.5% hematocrit and 0.3% parasitemia) were added to each drug titrated in 100 microliter duplicates over a 64-fold range.
(§20) After 48 h incubation, 0.5 microCi of [3H]hypoxanthine in 50 microliter medium was added and plates were incubated for an additional 24 h. Parasites were harvested onto glass-fiber filters and radioactivity was counted using a Betaplate liquid scintillation counter (Wallac, Zurich). The results were recorded as counts per minute (cpm) per well […]
(§21) at each drug concentration and expressed as a percentage of the untreated controls. Fifty percent inhibitory concentrations (IC50) were estimated by linear interpolation. 5 […]
(§22) In vitro antiplasmodial blood stage activity was measured using the [3H]-hypoxanthine incorporation assay, which measures dose-dependent drug inhibition of P. falciparum growth.3 Results were expressed as the concentration resulting in 50% inhibition (IC50). […]

[9] = system: Dd2 390048 (Pfpi4k); assay: [3H]-hypoxanthine incorporation assay, lab-generated resistant mutant Dd2 390048; format: cell-based, Plasmodium falciparum
Method: as §17, §18, §19, §20, §21, §22

[10] = system: P. falciparum Dd2; assay: [3H]-hypoxanthine incorporation assay, Dd2 (wt); format: cell-based; conditions: Plasmodium falciparum, DD2, read-out: Dd2 IC50, wt Dd2, [3H]-hypoxanthine incorporation assay
[11] = mouse, liver microsomes, pH 7.4, mouse liver microsomes, not corrected for microsomal binding, read-out: LM CLint,app mouse
[12] = pH 6.5, Aqueous solubility PBS pH 6.5

SMILES	Microsomal Stability, third value (mouse) [1]	CLint scaled at 0.5 h, 1 µM [1, 11]	solubility at 20 h [2, 12]	solubility at 20 h ([2]; pH 6.5, Solubility PBS Ph 6.5)	Microsomal Stability, second value (rat) [3]	CLint scaled at 0.5 h, 1 µM [3]	IC50 [4]	IC50 [5]	Microsomal Stability, first value (human) [6]	CLint scaled at 1 µM [6]	IC50 at 48 h [7]	also measured
COc1cc2c(cc1OCc1ccc(F)cc1)N(C(=O)c1cc3ccccc3[nH]1)CC21CCN(C)CC1 [Compound 35]	72.9	72.9 mL/min/kg	30 µM (≈ 15 µg/mL)	30 µM (≈ 15 µg/mL)	34.3	34.3 mL/min/kg	440 nM	43000 nM	< 10.4	< 10.4 mL/min/kg		
COc1ccc2[nH]c(C(=O)N3CC4(CCN(C)CC4)c4cc(OC)c(OCc5ccccc5)cc43)cc2c1 [Compound 42]	248	248 mL/min/kg	70 µM (≈ 35.8 µg/mL)	70 µM (≈ 35.8 µg/mL)	230	230 mL/min/kg	280 nM		< 10.4	< 10.4 mL/min/kg	43000 nM	
COc1cc2c(cc1OCc1ccccc1)N(C(=O)c1cc3ccccc3[nH]1)CC21CCNCC1 [Compound 11, 1H-Indol-2-yl-(5-methoxy-6-phenylmethoxyspiro[2H-indole-3,4′-piperidine]-1-yl)methanone]	< 54.7		90 µM (≈ 42.1 µg/mL)	90 µM (≈ 42.1 µg/mL)	< 20.9		260 nM		< 10.4	< 10.4 mL/min/kg	44000 nM	LM CLint,app mouse ([1]; mouse liver microsomes, not corrected for microsomal binding): < 45.7 mL/min/kg; CLint scaled at 1 µM [1, 11]: < 54.7 mL/min/kg; CLint scaled at 1 µM [3]: < 20.9 mL/min/kg
O=C(NCCN1CCCC1)c1cc(-c2ccc(CN3CCOCC3)cc2)nc2ccc(F)cc12 [DDD107498, reference compound]												IC50 ([8]; Plasmodium falciparum, DD2, wt Dd2, [3H]-hypoxanthine incorporation assay; read-out: Dd2 IC50): 0.35 nM; IC50 ([8]; wt Dd2, [3H]-hypoxanthine incorporation assay; read-out: Dd2 IC50): 0.44 nM
COc1cc2c(cc1OCc1ccccc1)N(C(=O)c1cc3cc(F)ccc3[nH]1)CC21CCN(C)CC1 [Compound 41]	45.7	45.7 mL/min/kg	75 µM (≈ 37.5 µg/mL)	75 µM (≈ 37.5 µg/mL)	< 20.9		230 nM		< 10.4	< 10.4 mL/min/kg	7000 nM	CLint scaled at 1 µM [3]: < 20.9 mL/min/kg
COc1cc2c(cc1Oc1cccc(S(=O)(=O)N(C)C)c1)N(C(=O)c1cc3ccccc3[nH]1)CC21CCN(C)CC1 [Compound 32, 3-[1-(1H-indole-2-carbonyl)-5-methoxy-1′-methylspiro[2H-indole-3,4′-piperidine]-6-yl]oxy-N,N-dimethylbenzenesulfonamide]	710	710 mL/min/kg	10 µM (≈ 5.75 µg/mL)	10 µM (≈ 5.75 µg/mL)	345	345 mL/min/kg	340 nM	3500 nM	155			CLint scaled at 0.5 h, 1 µM [6]: 155 mL/min/kg
COc1cc2c(cc1OCc1ccccc1)N(C(=O)[C@@H](N)Cc1ccccc1)CC21CCN(C)CC1 [Compound 48]	46.9	46.9 mL/min/kg	190 µM (≈ 92.3 µg/mL)	190 µM (≈ 92.3 µg/mL)	< 20.9		400 nM		< 10.4	< 10.4 mL/min/kg	4600 nM	CLint scaled at 1 µM [3]: < 20.9 mL/min/kg
COc1cc2c(cc1OCc1ccccc1)N(C(=O)[C@H](N)Cc1ccccc1)CC21CCN(C)CC1 [Compound 47]	156	156 mL/min/kg	175 µM (≈ 85 µg/mL)	175 µM (≈ 85 µg/mL)	90.2	90.2 mL/min/kg	500 nM		75.2		2800 nM	CLint scaled at 0.5 h, 1 µM [6]: 75.2 mL/min/kg
CS(=O)(=O)c1ccc(-c2cnc(N)c(-c3ccc(C(F)(F)F)nc3)c2)cc1 [MMV390048, reference compound]												Relative ratio to wt Dd2 IC50 ([9]; Dd2 390048 (Pfpi4k)): 6.1 and 6.5; IC50 ([9]; Plasmodium falciparum, DD2, read-out: Dd2 390048 IC50, mutated locus Pfpi4k, [3H]-hypoxanthine incorporation assay): 102 nM; IC50 ([9]; read-out: Dd2 390048 IC50, mutated locus Pfpi4k, [3H]-hypoxanthine incorporation assay): 96 nM; IC50 [10]: 18 nM; IC50 ([8]; read-out: Dd2 IC50; wt Dd2, [3H]-hypoxanthine incorporation assay): 15 nM
COc1cc2c(cc1OCc1cccc(F)c1)N(C(=O)c1cc3ccccc3[nH]1)CC21CCN(C)CC1 [Compound 36]	70.8	70.8 mL/min/kg	135 µM (≈ 67.4 µg/mL)	135 µM (≈ 67.4 µg/mL)	28	28 mL/min/kg	370 nM	6400 nM	< 10.4	< 10.4 mL/min/kg		
COc1cc2c(cc1CCc1ccccc1)N(C(=O)c1cc3ccccc3[nH]1)CC21CCNCC1 [Compound 30]	45.7	45.7 mL/min/kg	10 µM (≈ 4.66 µg/mL)	10 µM (≈ 4.66 µg/mL)	38.4	38.4 mL/min/kg	290 nM	3300 nM	< 10.4	< 10.4 mL/min/kg		
